Test results published in patent US20250002954A1, “Novel Compound, Use Thereof, and Method for Producing Same, and Compound-Containing Composition, Method for Producing 4-Trehalosamine, and Microorganism” (Microbial Chemistry Research Foundation, priority 2021, published 2025).

Columns and labels:
[1] = tested on: baker's yeast (Saccharomyces cerevisiae F-7); experiment: Evaluation of baker's yeast protective activity in freeze-dried condition; type: cell-based; conditions: for Numbers of live bacterial cells (relative numbers): baker's yeast freeze-dried with 6% aqueous solution (final concentration 3%), test sample 3 (FD) = 1
Method: Using test samples 1 to 8 containing baker's yeast prepared in the following manner, microorganism-protective activity with various kinds of sugar in a freeze-dried condition was evaluated.
Frozen stock of baker's yeast (Saccharomyces cerevisiae F-7, owned by the Microbial Chemistry Research Foundation) was inoculated in 10 mL of YPD culture fluid (1% yeast extract, 2% polypeptone, 2% glucose) and cultured at 27° C. for 2 days while shaking it at 220 rpm. After culture, it was centrifuged at 1,000×g for 5 minutes, washed once with 10 mL of water, and then suspended in 10 mL of water, thus obtaining yeast suspension. 50 μL of water was added to and mixed with 50 μL of this yeast suspension and the mixture was left to stand at 4° C. for 12 hours, preparing control (NF).
After yeast suspension was prepared in a similar manner to test sample 1, 50 µL of 6% aqueous solution of trehalose was added to and mixed with 50 μL of the yeast suspension, and the mixture was frozen at −80° C. for 1 hour. It was then freeze-dried for 12 hours with a freeze dryer (FLEXI-DRY, manufactured by FTS systems INC., Warminster) connected to a vacuum pump (P65D, manufactured by PHIL Sato Vac INC.), preparing freeze-dried product (TRH) of yeast with TRH.
Freeze-dried product (4TA) of yeast with 4TA was obtained in a similar manner to the preparation method of test sample 4 except that trehalose was changed to 4-trehalosamine (4TA) in the preparation method of test sample 4.
Freeze-dried product (MLT) of yeast with MLT was obtained in a similar manner to the preparation method of test sample 4 except that trehalose was changed to maltose (MLT) in the preparation method of test sample 4.
Freeze-dried product (SCR) of yeast with SCR was obtained in a similar manner to the preparation method of test sample 4 except that trehalose was changed to sucrose (SCR) in the preparation method of test sample 4.
Freeze-dried product (GOL) of yeast with GOL was obtained in a similar manner to the preparation method of test sample 4 except that trehalose was changed to glycerol (GOL) in the preparation method of test sample 4.
For test samples 1 and 2, serial suspensions were made by diluting them to 1/10 with saline. 100 μL of water was added to each of the freeze-dried products of test samples 3 to 8 and diluted to 1/10 with saline to make their serial suspensions. 60 μL of water was added to 30 μL of each diluted solution.
In a 6-well microplate, 2% Agar-YPD was prepared at 3 mL/well, and 90 μL of each diluted solution was inoculated on the 2% Agar-YPD and cultured at 30° C. for two days.
Wells in which the number of colonies was measurable were selected and the numbers (relative numbers) of live bacterial cells per well on test samples 1, 2, and 4 to 8 when the number of live bacterial cells per well on test sample 3 (FD) was “1” were calculated in consideration of the dilution concentrations of those test samples.

[2] = target: T1, bovine alkaline phosphatase (CIP) (Bos taurus, UniProt P19111); experiment: Evaluation of CIP-protective activity under freeze-dried condition; type: biochemical; conditions: for CIP activity after freeze-drying: freeze-dried with 3% additive
T1 construct: purchased New England Biolabs
Method: Test samples 1 to 12 containing bovine alkaline phosphatase (CIP) were prepared as follows and protein-protective activity of various kinds of added sugar under freeze-dried condition was evaluated.
After bovine alkaline phosphatase (10 units/μL, manufactured by New England Biolabs) was diluted to 1/40 with TBS (manufactured by Takara Bio Inc.), it was subjected to dialysis for 2 hours at 4° C. within TBS of an amount 1,000 times the diluted enzyme solution to remove glycerol. 40 μL of TBS containing 2% trehalose (TRH) was added to and mixed with 40 μL of the enzyme solution after dialysis and the mixture was frozen at −80° C. for 10 minutes. It was then freeze-dried for 20 hours with a freeze dryer (FLEXI-DRY, manufactured by FTS systems INC., Warminster) connected to a vacuum pump (P65D, manufactured by PHIL Sato Vac INC.), preparing freeze-dried product of enzyme with 1% TRH.
Freeze-dried product of enzyme with 3% TRH was prepared in a similar manner to the preparation method of test sample 4 except that the final concentration of trehalose was changed to 3% in the preparation method of test sample 4. […]
Freeze-dried product of enzyme with 3% 4TA was prepared in a similar manner to the preparation method of test sample 5 except that trehalose was changed to 4-trehalosamine (4TA) in the preparation method of test sample 5. […]
Freeze-dried product of enzyme with 3% MLT was prepared in a similar manner to the preparation method of test sample 5 except that trehalose was changed to maltose (MLT) in the preparation method of test sample 5. […]
Freeze-dried product of enzyme with 3% SCR was prepared in a similar manner to the preparation method of test sample 5 except that trehalose was changed to sucrose (SCR) in the preparation method of test sample 5.
Freeze-dried product of enzyme with 3% GOL was prepared in a similar manner to the preparation method of test sample 5 except that trehalose was changed to glycerol (GOL) in the preparation method of test sample 5.
80 μL of water was added to each of the freeze-dried products of test samples 3 to 12 and the mixture was diluted to 1/100 with TBS. Test samples 1 and 2 were diluted to 1/100 with TBS. 10 μL of each of the diluted test samples 1 to 12 and 20 μL of 0.1 M p-nitrophenylphosphate (pNPP)-TBS solution were added to 70 μL of TBS, and enzyme reaction was left to take place at 37° C. for 1 hour. After the reaction, absorbance at 420 nm was measured with a microplate reader (Cytation5, manufactured by Bio Tek Instruments) and CIP activity was measured by the amount of p-nitrophenol as enzyme reaction product (n=3, mean±S.D.).

T1 sequence (P19111 20-506): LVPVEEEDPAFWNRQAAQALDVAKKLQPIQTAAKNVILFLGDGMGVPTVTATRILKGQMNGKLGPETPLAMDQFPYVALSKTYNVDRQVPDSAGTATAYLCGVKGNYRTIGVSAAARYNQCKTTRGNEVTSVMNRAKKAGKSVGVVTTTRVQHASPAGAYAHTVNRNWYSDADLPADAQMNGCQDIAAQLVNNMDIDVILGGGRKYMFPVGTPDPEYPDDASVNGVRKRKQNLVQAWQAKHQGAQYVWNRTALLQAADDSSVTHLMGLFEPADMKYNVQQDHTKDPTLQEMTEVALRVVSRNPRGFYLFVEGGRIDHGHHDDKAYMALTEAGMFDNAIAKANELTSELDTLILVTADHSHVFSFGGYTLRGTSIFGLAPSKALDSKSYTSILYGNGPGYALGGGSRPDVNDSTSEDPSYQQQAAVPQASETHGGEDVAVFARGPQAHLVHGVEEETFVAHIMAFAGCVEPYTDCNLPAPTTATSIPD

Row | CIP activity after freeze-drying [2] | SMILES | Numbers of live bacterial cells (relative numbers) [1] | protective effect on microorganisms, comparison ([1]; baker's yeast, freeze-dried) | CIP protection effect compared to other sugars ([2]; freeze-dried)
1 | good activity was maintained | OC[C@H]1O[C@H](O[C@H]2[C@H](O)[C@@H](O)C(O)O[C@@H]2CO)[C@H](O)[C@@H](O)[C@@H]1O (mixture of isomers) [maltose] | 10 | – | –
2 | enzyme activity significantly dropped | OCC(O)CO [GOL, glycerol] | 0 | – | –
3 | good activity was maintained | OC[C@H]1O[C@@](CO)(O[C@H]2O[C@H](CO)[C@@H](O)[C@H](O)[C@H]2O)[C@@H](O)[C@@H]1O [sucrose] | 10 | – | –

Continued, compound first:

Row | SMILES | CIP activity after freeze-drying [2] | Numbers of live bacterial cells (relative numbers) [1] | protective effect on microorganisms, comparison ([1]; baker's yeast, freeze-dried) | CIP protection effect compared to other sugars ([2]; freeze-dried)
4 | N[C@H]1[C@H](O)[C@@H](O)[C@@H](O[C@H]2O[C@H](CO)[C@@H](O)[C@H](O)[C@H]2O)O[C@@H]1CO [4-trehalosamine] | good activity was maintained | 100 | stronger than when maltose or sucrose was added | high compared to the other sugars
5 | OC[C@H]1O[C@H](O[C@H]2O[C@H](CO)[C@@H](O)[C@H](O)[C@H]2O)[C@H](O)[C@@H](O)[C@@H]1O [trehalose, reference compound] | good activity was maintained | 100 | – | –
